Data as given in patent US12329788B2, “Synbiotic compositions” (Evonik Operations GmbH, priority 2018, dated 2025).
Where a SMILES comes first, the peptide text is derived from it.

How the values were obtained:
colonic human microbiota = assay: i-screen intestinal screening model, microbiota composition by 16S rRNA V4 sequencing (whole community, Bacillus persistence); format: cell-based; conditions: for synergy on microbial community composition (higher increase of Clostridium XIVa, higher decrease of Clostridium XI than single additions): 24 h; for other genera relative abundance: 24 h SIEM, amino acids 3.5 mM; for other genera relative abundance / effect on the microbial community: dipeptides 7 mM; for effect on the microbial community: Example 8, amino acids 3.5 mM, 0% O2
Text: To determine the effect of the probiotic strains Bacillus subtilis DSM 32315, Bacillus subtilis DSM 32540, Bacillus licheniformis DSM 32314 and Bacillus amyloliquefaciens CECT 5940 on adult colonic microbiota, an intestinal screening model was used (i-screen, TNO, the Netherlands). Therefore the i-screen model was inoculated with standard human adult fecal microbiota material, which consisted of pooled fecal donations from 6 healthy adult volunteers (Caucasian, European lifestyle and nutrition). The fecal material was mixed and grown in a fed-batch fermenter for 40 hours to create a standardized microbiota as described previously. These standard adult gut microbiota sets were stored at -80° C. in 12% glycerol. The intestinal microbiota was cultured in vitro in modified standard ileal efflux medium (SIEM), the composition of which was described by and modified as follows: 0.047 g/l pectin, 0.047 g/l xylan, 0.047 g/l arabinogalactan, 0.047 g/l amylopectin, 0.392 g/l starch, 24.0 g/l casein, 24.0 Bacto pepton, 0.4 ox-bile and 0.2 g/l cysteine. All components were supplied by Trititium Microbiology (Veldhoven, The Netherlands). The pH of the medium was adjusted to 5.8. For the i-screen fermentations, the precultured standardized fecal inoculum was diluted 50 times in 1350 μl modified SIEM. All experiments have been carried out in triplicates. The strains Bacillus subtilis (DSM 32315), Bacillus subtilis DSM 32540, Bacillus licheniformis DSM 32314 and Bacillus amyloliquefaciens CECT 5940 were precultured separately in 50 ml LBKelly medium, for about 16 h. Incubation was done in shaking flasks at 37° C. under aerobic conditions. After incubation, bacterial density was determined by optical density measurement at 600 nm. A final stock solution of 1×10^10 cells/ml was prepared in 1 ml buffer solution (0.1 mM MES pH 6). […] DNA extraction for the sequencing of 16S rRNA coding genes was performed as described by […] et al. (2013) with some minor modifications. Approximately 100 μl of the culture materials were added to the wells of a 96 well plate containing per well 300 μl of lysis buffer (Mag Mini DNA Isolation Kit, LGC ltd, UK), 500 μl zirconium beads (0.1 mm; BioSpec products, Bartlesville, OK, USA) and 500 μl of phenol saturated with Tris-HCI (pH 8.0; Carl Roth GMBH, Germany). The 96 well plate was placed in a Mini-BeadBeater-96 (BioSpec products, Bartlesville, Okla, USA) for 2 min at 2100 oscillations/min. DNA was subsequently purified using the Agowa Mag Mini DNA Isolation Kit according to the manufacturer recommendations. Extracted DNA was eluted in a final volume of 60 μl buffer. The microbiota composition was analyzed by 16S rRNA gene amplicon sequencing of the V4 Hypervariable Region. This was Achieved Through a Series of Steps: The amount of bacterial DNA in the i-screen DNA samples was determined by quantitative polymerase chain reaction (qPCR) using primers specific for the bacterial 16S rRNA gene: Subsequently, PCR amplicons of the V4 hypervariable region of the 16S rRNA gene were generated for the individual samples by amplification of […] of DNA as described by (2013), using […]/[…] primers. Primers included Illumina adapters and a unique 8-nt sample index sequence key. A mock control was included for technical quality control. […] The Library was quantified using the Quant-iTTM PicoGreen® dsDNA Assay Kit (Thermo Fisher Scientific). Paired-end sequencing of amplicons was conducted on the Illumina MiSeq platform (Illumina, Eindhoven, The Netherlands). The sequence data was processed with Mothur v.1.36.1 [26] in line with the mothur MiSeq SOP [24]. Before merging the read pairs, low quality regions were trimmed using Btrim with a sliding window size of 5 nt and average quality score of 25. After merging, the sequences were filtered by length while no ambiguous bases were allowed. […] Chimeric sequences were identified per sample using […] [28] in de novo mode and removed. […]

[1] = infused, post-operative anaesthetized dogs; cited from earlier work
[2] = oral supplementation, guinea-pigs treated with methotrexate; cited from earlier work
gut microbiota = conditions: oral supplementation, overweight humans; cited from earlier work
[3] = in combination with B. amyloliquefaciens (CECT 5940)
[4] = in combination with B. licheniformis (DSM 32314)
[5] = in combination with B. subtilis (DSM 32315)
[6] = microbiota + CECT 5940 (first group so headed, r13-r15)
[7] = microbiota + CECT 5940 (second group so headed, r16-r18)

SMILES	synergy on microbial community composition (higher increase of Clostridium XIVa, higher decrease of Clostridium XI than single additions) (colonic human microbiota; [3])	synergy on microbial community composition (higher increase of Clostridium XIVa, higher decrease of Clostridium XI than single additions) (colonic human microbiota; [4])	synergy on microbial community composition (higher increase of Clostridium XIVa, higher decrease of Clostridium XI than single additions) (colonic human microbiota; [5])	other genera relative abundance (colonic human microbiota; [6]) [%]	other genera relative abundance (colonic human microbiota; [7]) [%]	other genera relative abundance (colonic human microbiota; microbiota + DSM 32315) [%]	other genera relative abundance (colonic human microbiota; microbiota, no probiotic cells) [%]	extraction of the amino acids by skeletal muscle [1]	effect on the microbial community (colonic human microbiota)	mortality [2]	Firmicutes to Bacteriodetes ratio (gut microbiota)
NCC(=O)O.N[C@@H](CCC(=O)O)C(=O)O [Gly-Glu, Glycine-Glutamic acid]	synergistic effect	synergistic effect	synergistic effect	91	90	92	95	–	–	–	–
CC(=O)N[C@@H](C)C(=O)N[C@@H](CCC(N)=O)C(=O)O [Ac-Ala-Gln] (Ac-Ala-Gln-OH)	–	–	–	78	76	67	72	–	–	–	–
C[C@H](N)C(=O)N[C@@H](CCC(N)=O)C(=O)O [Ala-Gln, Alanine-Glutamine] (H-Ala-Gln-OH)	synergistic effect	synergistic effect	synergistic effect	90	94	96	98	extracted by skeletal muscle almost as well as from mixtures of alanine and glutamine	–	–	–
N[C@@H](CCC(=O)O)C(=O)O [Glu, glutamic acid, reference compound]	–	–	–	73	80	72	72	–	no positive effect on the microbial community	–	–
NC(=O)CC[C@H](N)C(=O)O [Gln, glutamine, reference compound]	synergistic effect	–	–	79	70	74	72	–	no positive effect on the microbial community	reduced mortality	reducing the Firmicutes to Bacteriodetes ratio
